The supplement of paper PMC11208160

assay: recombinant UMI read abundance after kanamycin selection (control-corrected) (log10(CPM+1)); higher = more efficient recombination; extreme values may be limits of the assay; sequences stand for … in AGTGCAGAGAAAATCGGCCAGTTTTCTCTGCCTGCAGTCCGCATGCCGTGGGACCCCTTGGGTTCTAACCTGTTGCCTAGATTTATGCAGCGGACTGCCTTTCTCCCAAAGTGATAAACCGG…AGGTTGGTTTCACT; site = the 11-nt donor
Method: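 Pooled E. coli donor-specificity screen for the IS621 bridge recombinase. Each library member carries a reprogrammed 11-nt donor and a full-length LE bridge RNA expressed in cis from the natural promoter, with a paired donor-binding loop (8-nt LDG + 4-nt RDG) and a target-binding loop fixed to T5. It is co-electroporated with a T5 target plasmid; recombinase is induced with 0.07 mM IPTG and recombinants are selected on kanamycin. UMIs are counted as CPM, averaged over two biological replicates and corrected by the unselected control. Molecule = full bridge RNA written as DNA, built from the T5 scaffold: LDG = donor specificity nt 1-8, RDG = reverse complement of nt 8-11.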
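Note: IS621 bridge recombinase in Escherichia coli cells against a fixed T5 target plasmid.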

Sequence	recombinant UMI read abundance (log10)
ACCAGAACATGGACCGGTTTTCCCGGTAATCCGTATTTGAG (site ACCAGAACTCT)	2.19
ACCAGAACATGGACCGGTTTTCCCGGTAATCCGTATTTGAG (site ACGAGAACTCT)	0
ACCAGAACATGGACCGGTTTTCCCGGTAATCCGTATTTGAG (site ACTAGAACTCT)	0.155
ACCAGCTCATGGACCGGTTTTCCCGGTAATCCGTATTTGTC (site ACCAGCTCTGA)	2.47
ACCATATCATGGACCGGTTTTCCCGGTAATCCGTATTTGTC (site ACCATATCTGA)	2.03
ACCATATCATGGACCGGTTTTCCCGGTAATCCGTATTTGTC (site CCCATATCTGA)	0
ACCATATCATGGACCGGTTTTCCCGGTAATCCGTATTTGTC (site GCCATATCTGA)	0
ACCATATCATGGACCGGTTTTCCCGGTAATCCGTATTTGTC (site TCCATATCTGA)	0
ACCCAATCATGGACCGGTTTTCCCGGTAATCCGTATTTGGA (site ACCCAATCTTC)	2.04
ACCCACACATGGACCGGTTTTCCCGGTAATCCGTATTTGTA (site ACCCACACTTA)	1.92
ACCCACACATGGACCGGTTTTCCCGGTAATCCGTATTTGTA (site CCCCACACTTA)	0.963
ACCCACACATGGACCGGTTTTCCCGGTAATCCGTATTTGTA (site GCCCACACTTA)	0.0193
ACCCACACATGGACCGGTTTTCCCGGTAATCCGTATTTGTA (site TCCCACACTTA)	0.408
ACCCATTCATGGACCGGTTTTCCCGGTAATCCGTATTTGGA (site ACCCATTCTTC)	1.53
ACCCCAACATGGACCGGTTTTCCCGGTAATCCGTATTTGGT (site ACCCCAACTAC)	0.756
ACCCCATCATGGACCGGTTTTCCCGGTAATCCGTATTTGAT (site ACCCCATCTAT)	1.23

Sequence	recombinant UMI read abundance (log10)
ACCCCGACATGGACCGGTTTTCCCGGTAATCCGTATTTGTG (site ACCCCGACTCA)	0.965
ACCCCTACATGGACCGGTTTTCCCGGTAATCCGTATTTGAA (site ACCCCTACTTT)	1.06
ACCCGCTCATGGACCGGTTTTCCCGGTAATCCGTATTTGCA (site ACCCGCTCTTG)	2.9
ACCCTCACATGGACCGGTTTTCCCGGTAATCCGTATTTGTA (site ACCCTCACTTA)	0.59
ACCCTTACATGGACCGGTTTTCCCGGTAATCCGTATTTGAG (site ACCCTTACTCT)	1.66
ACCCTTTCATGGACCGGTTTTCCCGGTAATCCGTATTTGAC (site AACCTTTCTGT)	0
ACCCTTTCATGGACCGGTTTTCCCGGTAATCCGTATTTGAC (site ACCCTTTCTGT)	0
ACCCTTTCATGGACCGGTTTTCCCGGTAATCCGTATTTGAC (site AGCCTTTCTGT)	0
ACCCTTTCATGGACCGGTTTTCCCGGTAATCCGTATTTGAC (site ATCCTTTCTGT)	0
ACCGAGACATGGACCGGTTTTCCCGGTAATCCGTATTTGGG (site ACCAAGACTCC)	0.109
ACCGAGACATGGACCGGTTTTCCCGGTAATCCGTATTTGGG (site ACCCAGACTCC)	0.0111
ACCGAGACATGGACCGGTTTTCCCGGTAATCCGTATTTGGG (site ACCGAGACTCC)	0.621
ACCGAGACATGGACCGGTTTTCCCGGTAATCCGTATTTGGG (site ACCTAGACTCC)	0
ACCGAGCCATGGACCGGTTTTCCCGGTAATCCGTATTTGAT (site ACCGAGCCTAT)	1.13
ACCGATACATGGACCGGTTTTCCCGGTAATCCGTATTTGAA (site ACCGATACTTT)	1.6
ACCGCTACATGGACCGGTTTTCCCGGTAATCCGTATTTGCC (site ACCGCTACTGG)	1.75
